Assay results published in US9896663B2, “Leukaemia stem cell line, its method of production and uses thereof” (Peter MacCallum Cancer Institute, priority 2016, dated 2018).

Columns and labels:
[1] = tested on: L-GMPs from I-BET naive mice; assay: Clonogenic assay of sorted I-BET naive L-GMPs; type: cell-based, mouse; conditions: 1 μM I-BET; FIG. 2H
Method: (§1) Clonogenic potential was assessed through colony growth of derived cell lines plated in cytokine supplemented methylcellulose (Methocult M3434, Stemcell Technologies). […] Gr1−/CD11b- and Gr1+/CD11b+ fractions of resistant cell lines were plated in duplicate following FACS sorting at a cell dose of between 2×10^2 and 2×10^3 cells per plate. […] Cells were incubated at 37° C. and 5% CO2 for 7 to 10 days at which time colonies were counted.
Immunophenotype assessment for markers of committed differentiation was undertaken through staining with Alexa Fluor 700 anti-Gr-1 (108422, BioLegend) and Brilliant Violet 605 anti-CD11b (101237, BioLegend). Assessment of L-GMP populations was undertaken through staining with eFluor 660 anti-CD34 (50-0341-82, eBioscience), biotin lineage antibody cocktail (120-001-547, Miltenyi Biotec), PerCP/Cy5.5 anti-CD16/32 (101324, BioLegend), APC/Cy7 anti-CD117 (105826, BioLegend) and Pacific Blue anti-Ly-6A (122520, BioLegend) followed by secondary staining with V500 streptavidin (561419, BD Biosciences). […]

[2] = tested on: MLL-AF9 AML, parental cell line; assay: Syngeneic transplantation AML model, recipients of the parental cell line, survival; type: in vivo, C57BL/6 mice; conditions: I-BET 20-30 mg/kg IP; P<0.01, n=6, log-rank; FIG. 1H
Method: (§2) Serial syngeneic transplantation studies of drug efficacy, generation of in vivo resistance and limit dilution analyses were performed with intravenous injection of between 10 to 2.5×10^6 cells per mouse obtained from bone marrow or spleen.
(§3) Syngeneic transplantation studies were performed in C57BL/6 mice (wild type or expressing Ptprc^a). All mice were 6-10 weeks old at the time of sub-lethal irradiation (300 cGy) and intravenous cell injection. […] Mice were randomly assigned treatment groups; treatment administration was not blinded. Sample sizes were determined according to the resource equation method. Differences in Kaplan-Meier survival curves were analysed using the log-rank statistic.

I-BET resistant cells = assay: Clonogenic, apoptosis and cell cycle assays, I-BET resistant cells; type: cell-based, mouse; conditions: FIG. 1D-F
Method: as §1
(§4) Cell apoptosis was assessed using APC conjugated Annexin V (550475, BD Biosciences) and propidium iodide (PI) (P4864, Sigma-Aldrich) staining according to manufacturer's instructions.
(§5) For cell cycle analysis, cells were fixed overnight at −20° C. in 70% EtOH/PBS. Prior to flow cytometry analysis, cells were incubated at 37° C. for 30 minutes in PI staining solution (0.02 mg/mL PI, 0.05% v/v Triton-X in PBS, supplemented with DNase-free RNase A (19101, Qiagen) or incubated at room temperature for 10 minutes with 4′,6-diamidino-2-phenylindole (DAPI) staining solution (1 μg/ml DAPI, 0.05% v/v Triton-X in PBS).

[3] = tested on: MLL-AF9 AML, I-BET resistant cell line; assay: Syngeneic transplantation AML model, recipients of resistant cells, survival; type: in vivo, C57BL/6 mice; conditions: identical treatment strategy; P=0.877, n=6, log-rank; FIG. 1I
Method: as §2, §3

[4] = tested on: vehicle treated cells / I-BET naive bulk leukaemia cells; assay: Clonogenic, apoptosis and cell cycle assays, vehicle treated (I-BET naive) cells; type: cell-based, mouse
Method: as §1, §4, §5

[5] = tested on: human AML patient derived xenograft; assay: Patient derived xenograft (PDX) model of AML; type: in vivo, NOD SCID gamma (NSG) mice; conditions: I-BET 10 mg/kg for 2 weeks; FIG. 2G
Source text: Immunophenotype assessment for markers of committed differentiation was undertaken through staining with Alexa Fluor 700 anti-Gr-1 (108422, BioLegend) and Brilliant Violet 605 anti-CD11b (101237, BioLegend). Assessment of L-GMP populations was undertaken through staining with eFluor 660 anti-CD34 (50-0341-82, eBioscience), biotin lineage antibody cocktail (120-001-547, Miltenyi Biotec), PerCP/Cy5.5 anti-CD16/32 (101324, BioLegend), APC/Cy7 anti-CD117 (105826, BioLegend) and Pacific Blue anti-Ly-6A (122520, BioLegend) followed by secondary staining with V500 streptavidin (561419, BD Biosciences). Assessment of leukemic LMPP and GMP populations in patient derived xenografts was undertaken through staining with APC/Cy7 anti-mouse CD45.1 (110716, Biolegend), eFluor 450 anti-mouse Ter119 (48-5921-82, eBioscience), FITC anti-human CD45 (11-9459-42, eBioscience), BV711 anti-human CD38 (563965, BD Biosciences), PE anti-human CD90 (561970, BD Biosciences), PE-Cy5 anti-human CD123 (15-1239-41, eBioscience), PerCP-Cy5.5 anti-human CD45RA (45-0458-42), biotin anti-human CD3 (555338, BD Biosciences), biotin anti-human CD19 (555411, BD Biosciences), PE-Cy7 anti-human CD33 (333946, BD Biosciences) and APC anti-human CD34 (555824, BD Biosciences) followed by secondary staining with V500 streptavidin (561419, BD Biosciences). […]

[6] = tested on: Murine HSPCs transduced with MLL-AF9; assay: Selection of MLL-AF9 transduced HSPCs in cytokine-supplemented methylcellulose with I-BET (IC40); type: cell-based, mouse
Source text: Initial generation of immortalised parental cell lines was achieved through magnetic bead selection (Miltenyi Biotec) of c-kit positive cells, obtained from whole bone marrow of male and female C57BL/6 mice, and subsequent retroviral transduction with either an MSCV-MLL-AF9-IRES-YFP or an MSCV-MLL-ENL construct.
Individual vehicle-treated or resistant colonies were picked and transferred to liquid culture to generate clonal cell lines. […] Vehicle-treated clones were also continuously maintained in 0.1% DMSO and passaged in identical fashion. The parental cell line was continuously maintained with no exposure to vehicle or drug.

I-BET resistant clones = assay: Cell growth of I-BET resistant clones under JQ1; type: cell-based, mouse; conditions: 100 nM JQ1; FIG. 1C
Method: Following 72 hour incubation, resazurin was added to each well and plates were further incubated for 3 hours. Fluorescence was then read at 560 nm/590 nm on a Cytation 3 Imaging Reader (BioTek). Cell counts were performed using a haemocytometer. Determination of in vitro synergy in proliferation assays was undertaken according to the method of Zhao et al. (2014, Journal of molecular screening, 19: 817-821).

| SMILES | L-GMPs able to survive in clonogenic assay [1] | survival [2] | I-BET mediated suppression of clonogenic capacity, induction of apoptosis and cell cycle arrest (I-BET resistant cells) | survival [3] | clonogenic potential ([4]; 1 μM I-BET, I-BET naive bulk leukaemia cells, FIG. 1D) | I-BET mediated suppression of clonogenic capacity, induction of apoptosis and cell cycle arrest ([4]; vehicle treated cells, FIG. 1D-F) | effect on leukemic LMPP population (hCD45 expression) [5] | IC40 [6] [nM] | resistance of I-BET resistant clones to JQ1 (I-BET resistant clones) |
| --- | --- | --- | --- | --- | --- | --- | --- | --- | --- |
| COc1cc2c(cc1-c1c(C)noc1C)ncc1[nH]c(=O)n([C@H](C)c3ccccn3)c12 [I-BET, I-BET 151] | 30-40% | significant survival advantage | impervious | survival advantage is abrogated | virtually eradicates | exquisitely sensitive | enriches for the leukemic LMPP population | 400 |  |
| Cc1sc2c(c1C)C(c1ccc(Cl)cc1)=N[C@@H](CC(=O)OC(C)(C)C)c1nnc(C)n1-2 [JQ1] |  |  |  |  |  |  |  |  | cross-resistance |
